Test results: paper PMC7878868, “Mechanisms of feedback inhibition and sequential firing of active sites in plant aspartate transcarbamoylase” (Nature Communications, 2021)
Values joined by “and” are separate entries in the source; they are usually repeats but may differ in a detail not shown here. Identical values can stand only once.

Tests used:
atATC-F161A [1] = target: T1, atATC-F161A (Arabidopsis thaliana, UniProt P49077, F161A); assay: Colorimetric ATC activity assay, atATC F161A; assay type: biochemical; settings: for Activity F161A: 10 mM Asp
T1 construct: 2.6 kDa fusion tag (modified pET28a); made in house; host or cells: E. coli BLR(DE3)-pLysS
T1 sequence (P49077 82-390 F161A): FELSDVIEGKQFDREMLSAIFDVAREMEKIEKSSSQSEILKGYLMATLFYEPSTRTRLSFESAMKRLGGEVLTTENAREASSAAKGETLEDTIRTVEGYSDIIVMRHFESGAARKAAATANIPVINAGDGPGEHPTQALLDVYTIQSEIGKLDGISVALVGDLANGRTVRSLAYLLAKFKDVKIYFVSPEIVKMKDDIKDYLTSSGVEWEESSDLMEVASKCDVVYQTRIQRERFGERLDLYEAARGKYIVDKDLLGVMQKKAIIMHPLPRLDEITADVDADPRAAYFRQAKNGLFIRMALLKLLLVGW
Procedure: (§1) Activity was assayed by a colorimetric method[64] adapted to a 96-well plate format. […] Reagent B is light sensitive and was stored at 4 °C in the dark. The color reagents were gently mixed and stored at 4 °C in the dark until added to the sample. Reaction tubes were closed, boiled at 95 °C for 15 min, and kept in the dark for 30 min before measuring the absorbance at 450 nm in a Tecan infinite m200 microplate reader (Tecan). […] Data analysis was done with GraphPad. […] Protein concentration in the assay was 0.3 µM (0.01 mg ml^−1) both for WT and F161A.

Arabidopsis seedlings = assay: Seedling assay in liquid culture with PALA (fresh weight, root length); assay type: in vivo, Arabidopsis thaliana; settings: for fresh weight compared to untreated seedlings / root length relative to untreated seedlings / root length, average: 7 days; for fresh weight compared to untreated seedlings: n = 3 (3 times 10 seedlings); for root length relative to untreated seedlings / root length, average: n = 30; for root length, average: untreated 2.68 ± 0.49 cm; for Freshweight, single replicates (10 seedlings): source data of Figure 3a; for Freshweight, average (10 seedlings): 0 mM PALA 0.1699 g
Procedure: For DNA isolation, tissue collection and phenotypic inspection, wild-type Col-0 and transgenic Arabidopsis thaliana (L.) Heynh. plants (ecotype Columbia) were used throughout. Plants were grown in standardized soil (ED73 Einheitserde, Humuswerke Patzer) soil under long day conditions (120 μmol quanta m^−2 s^−1 in a […] regime, temperature 22 °C, humidity 60%). Prior to germination, seeds were incubated for 24 h in the dark at 4 °C for imbibition. […] The liquid cultures were maintained on a shaker at 100 rpm under the same light and temperature conditions as soil-grown plants. Leaf extract of wild-type and mutants was prepared by homogenizing leaf material in extraction buffer (50 mM HEPES-KOH pH 7.2, 5 mM MgCl2, 2 mM phenylmethylsulfonyl fluoride (PMSF) on ice. The homogenous extract was centrifuged at 20,000g for 10 min at 4 °C. The supernatant was collected and stored on ice until use.

atATC WT = target: T2, atATC WT (Arabidopsis thaliana, UniProt P49077); assay: Colorimetric ATC activity assay, atATC WT; assay type: biochemical; settings: 10 mM Asp
T2 construct: 2.6 kDa fusion tag (modified pET28a); made in house; host or cells: E. coli BLR(DE3)-pLysS
T2 sequence (P49077 82-390): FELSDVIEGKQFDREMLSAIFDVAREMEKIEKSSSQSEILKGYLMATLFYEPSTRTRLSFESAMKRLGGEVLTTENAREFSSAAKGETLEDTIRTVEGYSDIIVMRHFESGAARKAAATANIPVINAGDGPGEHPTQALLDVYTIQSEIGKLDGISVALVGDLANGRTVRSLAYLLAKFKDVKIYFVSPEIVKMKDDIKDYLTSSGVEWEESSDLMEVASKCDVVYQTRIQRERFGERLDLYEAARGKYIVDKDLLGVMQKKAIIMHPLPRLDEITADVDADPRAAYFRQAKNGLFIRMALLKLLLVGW
Procedure: as §1

atATC-F161A [2] = target: T1, atATC-F161A; assay: biochemical; assay type: binding
Procedure: (§2) Experiments were performed in an Auto-iTC200 calorimeter (MicroCal, Malvern-Panalytical) at 25 °C with a 0.2 ml reaction cell and 30–40 µM protein solution (in protomer units) in the cell. […] All solutions were in GF buffer and degassed and mixed in the cell by stirring at 750 rpm. Data analysis was performed with Origin 7 (OriginLab) using a general three-site cooperative and a non-cooperative binding model, restricted to one or two ligand binding sites when convenient[24],[62],[63]. Non-linear least-squares regression analysis was employed to estimate dissociation constants for the interaction of the different ligands with ATC.

[3] = target: T3, atATC (Arabidopsis ATC aa 82–390) WT (Arabidopsis thaliana, UniProt P49077); assay: Isothermal titration calorimetry (ITC), atATC WT; assay type: binding; settings: site 1
T3 construct: 2.6 kDa fusion tag (modified pET28a); made in house; host or cells: E. coli BLR(DE3)-pLysS
T3 sequence (P49077 82-390): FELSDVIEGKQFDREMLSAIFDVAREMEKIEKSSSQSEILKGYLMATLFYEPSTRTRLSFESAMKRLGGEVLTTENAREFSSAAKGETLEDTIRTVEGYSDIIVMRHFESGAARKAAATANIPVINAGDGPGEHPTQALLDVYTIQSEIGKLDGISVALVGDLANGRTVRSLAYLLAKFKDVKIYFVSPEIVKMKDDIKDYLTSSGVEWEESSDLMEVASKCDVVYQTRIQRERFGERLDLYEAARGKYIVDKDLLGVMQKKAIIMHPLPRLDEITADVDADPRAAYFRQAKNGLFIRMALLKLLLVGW
Procedure: as §2

plant ATCs = test system: plant ATCs; set-up: method as in PMID 14479231, doi:10.1093/jxb/40.10.1121; settings: cited from earlier work

For O=C(O)C[C@H](NC(=O)CP(=O)(O)O)C(=O)O [PALA, N-(phosphonacetyl)-L-aspartate], the “Activity F161A” value (atATC-F161A [1]; 0.01 mM PALA, [CP] 0.15 mM) was 4.41 nmol / min μg and 6.29 nmol / min μg and 5.34 nmol / min μg, the “Activity F161A” value (atATC-F161A [1]; 0.01 mM PALA, [CP] 0.31 mM) was 5.13 nmol / min μg and 6.44 nmol / min μg and 9.47 nmol / min μg and the “Activity F161A” value (atATC-F161A [1]; 0.01 mM PALA, [CP] 0.63 mM) was 25.34 nmol / min μg and 31.98 nmol / min μg and 21.75 nmol / min μg. For the same compound, the “Activity F161A” value (atATC-F161A [1]; 0.01 mM PALA, [CP] 1.25 mM) was 39.80 nmol / min μg and 37.97 nmol / min μg and 40.98 nmol / min μg, the “Activity F161A” value (atATC-F161A [1]; 0.01 mM PALA, [CP] 2.50 mM) was 38.56 nmol / min μg and 36.28 nmol / min μg and 37.57 nmol / min μg and the “Activity F161A” value (atATC-F161A [1]; 0.1 mM PALA, [CP] 1.25 mM) was 11.15 nmol / min μg and 10.75 nmol / min μg and 7.03 nmol / min μg. The “Activity F161A” value (atATC-F161A [1]; 0.1 mM PALA, [CP] 2.50 mM) was 5.52 nmol / min μg and 9.09 nmol / min μg and 9.11 nmol / min μg, the “sensitivity of enzyme activity to PALA compared to WT” value (atATC-F161A [1]; F161A) was “more sensitive” and the “fresh weight compared to untreated seedlings” value (Arabidopsis seedlings; 0.2 mM PALA) was 59%. For the same compound, the “root length relative to untreated seedlings” value (Arabidopsis seedlings; 0.2 mM PALA) was 36%, the “root length, average” value (Arabidopsis seedlings; 0.2 mM PALA) was 0.96 ± 0.22 cm and 0.962 cm and the “Freshweight, single replicates (10 seedlings)” value (Arabidopsis seedlings; 0.2 mM PALA) was 0.1006 g and 0.0950 g and 0.1032 g. The “Freshweight, average (10 seedlings)” value (Arabidopsis seedlings; 0.2 mM PALA) was 0.0996 g, the “fresh weight compared to untreated seedlings” value (Arabidopsis seedlings; 0.4 mM PALA) was 23% and the “root length relative to untreated seedlings” value (Arabidopsis seedlings; 0.4 mM PALA) was 8%. For the same compound, the “root length, average” value (Arabidopsis seedlings; 0.4 mM PALA) was 0.21 ± 0.09 cm and 0.213 cm, the “Freshweight, single replicates (10 seedlings)” value (Arabidopsis seedlings; 0.4 mM PALA) was 0.0435 g and 0.0329 g and 0.0417 g and the “Freshweight, average (10 seedlings)” value (Arabidopsis seedlings; 0.4 mM PALA) was 0.0394 g. The chlorosis of seedlings (Arabidopsis seedlings; PALA-treated seedlings) was “Chlorosis was also apparent”, the “Activity WT” value (atATC WT; 0.01 mM PALA, [CP] 0.16 mM) was 17.11 nmol / min μg and 10.69 nmol / min μg and 14.77 nmol / min μg and the “Activity WT” value (atATC WT; 0.01 mM PALA, [CP] 0.31 mM) was 20.84 nmol / min μg and 20.81 nmol / min μg and 18.28 nmol / min μg. For the same compound, the “Activity WT” value (atATC WT; 0.01 mM PALA, [CP] 0.63 mM) was 27.62 nmol / min μg and 26.91 nmol / min μg and 26.59 nmol / min μg, the “Activity WT” value (atATC WT; 0.01 mM PALA, [CP] 1.25 mM) was 40.50 nmol / min μg and 40.46 nmol / min μg and 40.29 nmol / min μg and the “Activity WT” value (atATC WT; 0.01 mM PALA, [CP] 2.50 mM) was 50.62 nmol / min μg and 53.39 nmol / min μg and 49.84 nmol / min μg. For the same compound, the “Activity WT” value (atATC WT; 0.01 mM PALA, [CP] 5.00 mM) was 66.15 nmol / min μg and 65.77 nmol / min μg and 55.96 nmol / min μg, the “Activity WT” value (atATC WT; 0.1 mM PALA, [CP] 0.31 mM) was 4.77 nmol / min μg and 4.92 nmol / min μg and 5.38 nmol / min μg and the “Activity WT” value (atATC WT; 0.1 mM PALA, [CP] 0.63 mM) was 10.55 nmol / min μg and 10.43 nmol / min μg and 10.56 nmol / min μg. For the same compound, the “Activity WT” value (atATC WT; 0.1 mM PALA, [CP] 1.25 mM) was 19.60 nmol / min μg and 18.57 nmol / min μg and 27.14 nmol / min μg, the “Activity WT” value (atATC WT; 0.1 mM PALA, [CP] 2.50 mM) was 27.12 nmol / min μg and 29.01 nmol / min μg and 31.29 nmol / min μg and the “Activity WT” value (atATC WT; 0.1 mM PALA, [CP] 5.00 mM) was 33.74 nmol / min μg and 33.21 nmol / min μg. The Kd (atATC-F161A [2]) was 120 nM, the “N, number of binding sites per protein trimer according to the ligand binding model” value (atATC-F161A [2]; ITC, F161A) was 1 and the “fold higher affinity of F161A than WT” value (atATC-F161A [2]; ITC, F161A versus WT) was 5 fold. The “-TΔS Site 1” value (atATC-F161A [2]; ITC, F161A, site 1) was -20.4 kcal/mol, the “ΔG Site 1” value (atATC-F161A [2]; ITC, F161A, site 1) was -9.4 kcal/mol and the “ΔH Site 1” value (atATC-F161A [2]; ITC, F161A, site 1) was 11.0 kcal/mol. The “-TΔS Site 1” value ([3]; ITC) was -21.6 kcal/mol, the “ΔG Site 1” value ([3]; ITC) was -8.5 kcal/mol and the “ΔH Site 1” value ([3]; ITC) was 13.1 kcal/mol. The Kd ([3]; KD Site 1, ITC, 25 °C) was 590 nM and 600 nM.
In the case of O=c1ccn([C@@H]2O[C@H](COP(=O)(O)OP(=O)(O)O)[C@@H](O)[C@H]2O)c(=O)[nH]1 [UDP], the “inhibition of plant ATCs” value (plant ATCs) is given as “not inhibitors”.
